In ChEMBL document CHEMBL4257568, “Synthesis, hepatotoxic evaluation and antipyretic activity of nitrate ester analogs of the acetaminophen derivative SCP-1” (Bioorg Med Chem Lett, 2018):
Activity calls are given as the source filed them. The calls are words filed in the database; no cut-off is given here.

Experiments:
[1] = tested on: Mus musculus; experiment: Antipyretic activity in LPS-induced CD1 mouse fever model assessed as effect on rectal temperature at 50 ug/kg, po administered as single dose and measured every 2 hrs up to 24 hrs; format: functional, organism-based
[2] = target: Cytochrome P450 3A4 (Homo sapiens, UniProt P08684); experiment: Inhibition of human CYP3A4 expressed in baculosomes at 1 uM using BOMCC as substrate preincubated for 20 mins followed by substrate and NADP+ addition and measured after 30 mins by fluorescence assay; format: ADME; conditions: recombinant enzyme, 0.5 h
Chain of Cytochrome P450 3A4 (P08684 whole entry): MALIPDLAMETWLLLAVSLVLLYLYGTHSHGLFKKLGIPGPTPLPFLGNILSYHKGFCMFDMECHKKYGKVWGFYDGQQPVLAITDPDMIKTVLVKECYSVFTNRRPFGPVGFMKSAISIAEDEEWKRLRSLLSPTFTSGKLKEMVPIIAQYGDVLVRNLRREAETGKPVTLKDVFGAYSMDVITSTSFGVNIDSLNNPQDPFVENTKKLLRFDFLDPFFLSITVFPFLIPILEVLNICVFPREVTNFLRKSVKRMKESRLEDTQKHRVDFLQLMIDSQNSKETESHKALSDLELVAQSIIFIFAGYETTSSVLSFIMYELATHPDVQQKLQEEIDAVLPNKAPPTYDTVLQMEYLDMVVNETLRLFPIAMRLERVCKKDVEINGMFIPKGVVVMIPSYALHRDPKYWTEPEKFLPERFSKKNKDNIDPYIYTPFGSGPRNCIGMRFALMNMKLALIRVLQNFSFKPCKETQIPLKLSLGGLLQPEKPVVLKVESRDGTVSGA

[3] = tested on: HepaRG; experiment: Hepatotoxicity in human HepaRG cells assessed as GSH depletion at 1000 uM after 12 hrs by ThiolTracker Violet dye-based fluorescence assay; format: toxicity, cell-based
[4] = tested on: HepaRG; experiment: Hepatotoxicity in human HepaRG cells assessed as GSH depletion at 500 uM after 3 to 12 hrs by ThiolTracker Violet dye-based fluorescence assay; format: toxicity, cell-based
[5] = target: Cytochrome P450 2D6 (Homo sapiens, UniProt P10635); experiment: Inhibition of human CYP2D6 expressed in baculosomes at 1 uM using MOBFC as substrate preincubated for 20 mins followed by substrate and NADP+ addition and measured after 30 mins by fluorescence assay; format: ADME; conditions: recombinant enzyme, 0.5 h
Chain of Cytochrome P450 2D6 (P10635 whole entry): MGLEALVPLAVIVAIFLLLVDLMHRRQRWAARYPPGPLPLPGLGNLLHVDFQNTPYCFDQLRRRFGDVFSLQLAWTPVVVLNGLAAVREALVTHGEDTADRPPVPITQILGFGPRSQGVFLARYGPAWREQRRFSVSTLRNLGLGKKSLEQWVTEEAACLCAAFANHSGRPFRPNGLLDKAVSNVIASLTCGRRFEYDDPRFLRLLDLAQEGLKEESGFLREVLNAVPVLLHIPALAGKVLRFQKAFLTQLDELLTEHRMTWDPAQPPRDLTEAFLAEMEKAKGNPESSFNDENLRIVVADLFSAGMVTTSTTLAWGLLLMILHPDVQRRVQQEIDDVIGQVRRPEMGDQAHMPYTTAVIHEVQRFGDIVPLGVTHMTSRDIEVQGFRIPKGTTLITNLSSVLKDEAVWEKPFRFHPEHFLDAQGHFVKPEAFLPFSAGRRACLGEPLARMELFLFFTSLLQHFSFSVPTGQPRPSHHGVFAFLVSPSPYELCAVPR

[6] = tested on: HepaRG; experiment: Hepatotoxicity in human HepaRG cells assessed as necrotic cell death at 500 uM measured over 12 hrs by LDH assay; format: toxicity, cell-based
[7] = tested on: HepaRG; experiment: Hepatotoxicity in human HepaRG cells assessed as GSH depletion at 500 uM measured over 12 hrs by ThiolTracker Violet dye-based fluorescence assay; format: toxicity, cell-based
[8] = target: Cytochrome P450 2E1 (Homo sapiens, UniProt P05181); experiment: Inhibition of human CYP2E1 expressed in baculosomes at 1 uM using EOMCC as substrate preincubated for 20 mins followed by substrate and NADP+ addition and measured after 30 mins by fluorescence assay; format: ADME; conditions: recombinant enzyme, 0.5 h
Chain of Cytochrome P450 2E1 (P05181 whole entry): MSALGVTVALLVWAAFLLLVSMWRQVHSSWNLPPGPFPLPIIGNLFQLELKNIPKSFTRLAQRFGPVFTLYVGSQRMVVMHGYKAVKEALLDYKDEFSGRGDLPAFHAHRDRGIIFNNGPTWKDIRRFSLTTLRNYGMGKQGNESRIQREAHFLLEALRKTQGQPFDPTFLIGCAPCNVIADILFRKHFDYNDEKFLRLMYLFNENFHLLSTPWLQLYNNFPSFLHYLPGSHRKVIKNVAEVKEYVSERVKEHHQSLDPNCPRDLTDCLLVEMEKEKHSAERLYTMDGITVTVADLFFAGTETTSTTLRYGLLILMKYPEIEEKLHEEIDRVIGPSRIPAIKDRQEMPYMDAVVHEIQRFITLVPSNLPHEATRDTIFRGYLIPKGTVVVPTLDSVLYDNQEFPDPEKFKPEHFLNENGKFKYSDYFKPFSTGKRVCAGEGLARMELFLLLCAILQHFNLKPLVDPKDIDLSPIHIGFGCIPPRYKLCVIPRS

[9] = tested on: HepaRG; experiment: Hepatotoxicity in human HepaRG cells assessed as necrotic cell death at 1000 uM measured over 12 hrs by LDH assay; format: toxicity, cell-based

| inhibition (INH) [2] | inhibition (INH) [5] | inhibition (INH) [8] | Compound | Activity [1] | Activity [3] | Activity [4] | Activity [6] | Activity [7] | Activity [9] |
| --- | --- | --- | --- | --- | --- | --- | --- | --- | --- |
| Not Active | Not Active | Not Active | O=C(CN1C(=O)c2ccccc2S1(=O)=O)Nc1ccc(OC(=O)CCCO[N+](=O)[O-])cc1 | Active | Non-Toxic | Non-Toxic | Toxic | Non-Toxic | – |
| Active | – | Active | CC(=O)Nc1ccc(O)cc1 [ACETAMINOPHEN] | Active | Toxic | Toxic | Toxic | Toxic | Toxic |
| Not Active | Not Active | Not Active | O=C(CN1C(=O)c2ccccc2S1(=O)=O)Nc1ccc(OC(=O)CCO[N+](=O)[O-])cc1 | inactive | Non-Toxic | Non-Toxic | Non-Toxic | Non-Toxic | Non-Toxic |
| Not Active | Not Active | Not Active | O=C(CN1C(=O)c2ccccc2S1(=O)=O)Nc1ccc(O)cc1 | – | Non-Toxic | Toxic | Non-Toxic | Toxic | Toxic |
